From patent US11453700B2, “Peptide having activities of skin whitening and uses thereof” (CAREGEN CO., LTD., priority 2019, dated 2022)

Columns and labels:
[1] = target: T1, tyrosinase (Mus musculus, UniProt P11344); experiment: Inhibitory effect on tyrosinase activity in α-MSH-stimulated B16F10 cells (L-DOPA, cell lysate); type: cell-based; settings: 200 ng/mL α-MSH, peptide 1-160 μM, 72 hours, FIG. 2
T1 construct: the cells were lysed by adding 0.1 M sodium phosphate buffer (pH 6.8, lysis buffer) containing 1% (v/v) triton X-100; endogenous in cells; host or cells: B16F10 mouse melanoma cells, stimulated with alpha-MSH
T1 sequence (P11344 19-533): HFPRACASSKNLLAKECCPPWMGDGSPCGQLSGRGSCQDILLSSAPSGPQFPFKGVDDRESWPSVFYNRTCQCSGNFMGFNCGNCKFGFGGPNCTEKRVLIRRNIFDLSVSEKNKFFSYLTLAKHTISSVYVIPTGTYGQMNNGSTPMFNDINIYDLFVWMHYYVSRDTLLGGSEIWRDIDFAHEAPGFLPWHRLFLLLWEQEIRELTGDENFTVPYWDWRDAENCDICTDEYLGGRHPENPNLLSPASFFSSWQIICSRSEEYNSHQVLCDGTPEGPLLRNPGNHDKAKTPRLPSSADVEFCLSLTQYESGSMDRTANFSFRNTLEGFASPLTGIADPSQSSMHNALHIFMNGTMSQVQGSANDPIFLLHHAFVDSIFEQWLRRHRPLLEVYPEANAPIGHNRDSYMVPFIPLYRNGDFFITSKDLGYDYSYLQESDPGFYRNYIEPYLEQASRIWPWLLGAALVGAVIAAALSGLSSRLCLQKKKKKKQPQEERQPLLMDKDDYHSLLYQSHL
Description: In detail, a mouse melanoma cell B16F10 was seeded in a 6-well plate at a density of 5×10^4 cells/well, followed by incubation for 16 hours. Thereafter, the culture medium was replaced by a medium supplemented with 2% (v/v) serum, and then 200 ng/mL of α-MSH was added thereto. Together therewith, the peptide composed of the amino acid sequence of SEQ ID NO: 1 was added at a concentration of 1 μM, 10 μM, 20 μM, 40 μM, 60 μM, 80 μM or 160 μM, respectively, followed by incubation for 72 hours. The 6-well plate was placed on ice, and then washed with cold PBS twice. Thereafter, the cells were lysed by adding 0.1 M sodium phosphate buffer (pH 6.8, lysis buffer) containing 1% (v/v) triton X-100. Thereafter, the cells in the well plate were scraped using a scraper, and collected in a 1.5 mL tube. The collected cells were vortexed, and centrifuged at 15,000 rpm for 10 minutes to obtain a supernatant. Thereafter, proteins in the supernatant were quantified to adjust the protein content at a predetermined amount. A buffer was added thereto, and 90 μL total of the sample was dispensed in a 96-well plate.
Thereafter, 20 μL of 10 mM L-DOPA was added to each sample, and incubated at 37° C. for 1 hour. Then, absorbance at 475 nm was measured. […] From absorbance at […], the tyrosinase activity (fold) was determined.

[2] = test system: B16F10 cells; experiment: Inhibitory effect on melanin production in α-MSH-stimulated B16F10 cells; type: cell-based, mouse; settings: 200 ng/mL α-MSH, peptide 10, 50, 100 or 200 μM, 72 hours, FIG. 1
Description: A mouse melanoma cell B16F10 was seeded in a 6-well plate at a density of 5×10^4 cells/well, followed by incubation for 16 hours. Thereafter, the culture medium was replaced by a medium supplemented with 2% (v/v) serum, and then 200 ng/mL of α-melanocyte-stimulating hormones (α-MSH) was added thereto to stimulate melanin production, together with each peptide of an amino acid sequence of SEQ ID NO: 1, at a concentration of 10 μM, 50 μM, 100 μM, or 200 μM, respectively, followed by incubation for 72 hours. Thereafter, the incubated cells were dissolved in 1 N NaOH, and absorbance at 450 nm was measured. In addition, an untreated group (Con) was used as a control, and only an α-MSH-treated group as a negative control and 200 μM or 500 μM of arbutin-, which is a known skin-whitening agent, and α-MSH-treated group as a positive control were used.
From absorbance at 450 nm, the content of melanin (%) produced by B16F10 cells was determined.

[3] = test system: Rab27a; experiment: Expression of melanin production-associated proteins (immunoblotting), Rab27a; type: cell-based, mouse; settings: B16F10 cells, 200 ng/mL α-MSH, peptide 1-160 μM, 72 hours, FIG. 4
Description: (§1) In detail, a mouse melanoma cell B16F10 was seeded in a 6-well plate at a density of 5×10^4 cells/well, followed by incubation for 16 hours. Thereafter, the culture medium was replaced by a medium supplemented with 2% (v/v) serum, and then 200 ng/mL of α-MSH was added thereto. Together therewith, the peptide composed of the amino acid sequence of SEQ ID NO: 1 was added at a concentration of 1 μM, 10 μM, 20 μM, 40 μM, 60 μM, 80 μM or 160 μM, respectively, followed by incubation for 72 hours. Thereafter, the cultured cells were lysed, and then subjected to immunoblotting using antibodies (all available from santacruz biotechnology, USA) against Mlph, Rab27a, tyrosinase (TYR), or MITF. In addition, a control, a negative control, and a positive control were used in the same manner as in Example 2.(1).

[4] = test system: Mlph; experiment: Expression of melanin production-associated proteins (immunoblotting), Mlph; type: cell-based, mouse; settings: B16F10 cells, 200 ng/mL α-MSH, peptide 1-160 μM, 72 hours, FIG. 4
Description: as §1

[5] = test system: MITF; experiment: Expression of melanin production-associated proteins (immunoblotting), MITF; type: cell-based, mouse; settings: B16F10 cells, 200 ng/mL α-MSH, peptide 1-160 μM, 72 hours, FIG. 4
Description: as §1

[6] = test system: TRP1; experiment: Expression of melanin production-associated genes (RT-PCR), TRP1; type: cell-based, mouse; settings: B16F10 cells, 200 ng/mL α-MSH, peptide 1-160 μM, 72 hours, FIG. 3
Description: (§2) In detail, a mouse melanoma cell B16F10 was seeded in a 6-well plate at a density of 5×10^4 cells/well, followed by incubation for 16 hours. Thereafter, the culture medium was replaced by a medium supplemented with 2% (v/v) serum, and then 200 ng/mL of α-MSH was added thereto. Together therewith, the peptide composed of the amino acid sequence of SEQ ID NO: 1 was added at a concentration of 1 μM, 10 μM, 20 μM, 40 μM, 60 μM, 80 μM or 160 μM, respectively, followed by incubation for 72 hours. mRNAs were extracted from the cultured cells, and the extracted mRNAs were reverse transcribed using a cDNA synthesis kit & PCR pre-mix (Intron, Korea), thereby synthesizing cDNA, respectively. Thereafter, a polymerase chain reaction (PCR) was carried out using each cDNA and Rab27a, Melanophilin (Mlph), myosin VA, MITF, tyrosinase, or TRP1 primer pairs. Moreover, a control, a negative control, and a positive control were used in the same manner as in Example 2.(1), and nucleotide sequences of the primers used herein are as in Table 3 below.

[7] = test system: Rab27a; experiment: Expression of melanin production-associated genes (RT-PCR), Rab27a; type: cell-based, mouse; settings: B16F10 cells, 200 ng/mL α-MSH, peptide 1-160 μM, 72 hours, FIG. 3
Description: as §2

[8] = test system: MITF; experiment: Expression of melanin production-associated genes (RT-PCR), MITF; type: cell-based, mouse; settings: B16F10 cells, 200 ng/mL α-MSH, peptide 1-160 μM, 72 hours, FIG. 3
Description: as §2

[9] = test system: tyrosinase; experiment: Expression of melanin production-associated genes (RT-PCR), tyrosinase; type: cell-based, mouse; settings: B16F10 cells, 200 ng/mL α-MSH, peptide 1-160 μM, 72 hours, FIG. 3
Description: as §2

[10] = test system: Melanophilin (Mlph); experiment: Expression of melanin production-associated genes (RT-PCR), Mlph; type: cell-based, mouse; settings: B16F10 cells, 200 ng/mL α-MSH, peptide 1-160 μM, 72 hours, FIG. 3
Description: as §2

[11] = test system: tyrosinase (TYR); experiment: Expression of melanin production-associated proteins (immunoblotting), TYR; type: cell-based, mouse; settings: B16F10 cells, 200 ng/mL α-MSH, peptide 1-160 μM, 72 hours, FIG. 4
Description: as §1

[12] = test system: myosin VA; experiment: Expression of melanin production-associated genes (RT-PCR), myosin VA; type: cell-based, mouse; settings: B16F10 cells, 200 ng/mL α-MSH, peptide 1-160 μM, 72 hours, FIG. 3
Description: as §2

## PNRYP [SEQ ID NO: 1]
[1]
  tyrosinase activity: inhibited
[2]
  melanin production: reduced in a concentration-dependent manner
[3]
  expression of Rab27a protein: inhibited
[4]
  expression of Mlph protein: inhibited
[5]
  expression of MITF protein: inhibited
[6]
  expression of TRP1 gene: inhibited
[7]
  expression of Rab27a gene: inhibited
[8]
  expression of MITF gene: inhibited
[9]
  expression of tyrosinase gene: inhibited
[10]
  expression of Mlph gene: inhibited
[11]
  expression of TYR protein: inhibited
[12]
  expression of myosin VA gene: inhibited
